Data as given in ChEMBL document CHEMBL4673222, “Discovery of a Bioactive Inhibitor with a New Scaffold for Cystathionine γ-Lyase” (J Med Chem, 2019).
Active and inactive are the calls of the source. The calls are words filed in the database; no cut-off is given here.

What was measured:
[1] = biological target: T1, Cystathionine gamma-lyase (Homo sapiens, UniProt P32929); experiment: Inhibition of human CSE using L-Cys as the substrate by tandem well based HTS assay
[2] = biological target: T1, Cystathionine gamma-lyase; experiment: Inhibition of human CSE using H-Cys as the substrate by tandem well based HTS assay
[3] = biological target: T1, Cystathionine gamma-lyase; experiment: Binding affinity to human CSE by ITC analysis
Homo sapiens [4] = organism: Homo sapiens; experiment: Selectivity index, ratio of IC50 for human CBS to IC50 for human CSE
Homo sapiens [5] = organism: Homo sapiens; experiment: Selectivity index, ratio of IC50 for human CBS to IC50 for human DDC
[6] = biological target: T1, Cystathionine gamma-lyase; experiment: Competitive inhibition of human CSE using varying levels of L-Cys as substrate and fixed PLP levels
[7] = biological target: T1, Cystathionine gamma-lyase; experiment: Inhibition of human CSE using L-Cys as the substrate in presence of 0.01% Triton X-100 by tandem well based HTS assay
[8] = biological target: T1, Cystathionine gamma-lyase; experiment: Inhibition of human CSE using L-Cys as the substrate in presence of 0.025% Triton X-100 by tandem well based HTS assay
[9] = biological target: T1, Cystathionine gamma-lyase; experiment: Inhibition of human CSE using H-Cys as the substrate by LC/MS/MS-based assay
[10] = Binding affinity to H2S assessed as absorbing of released H2S at 200 uM in presence of NaHS as H2S donor
[11] = biological target: T1, Cystathionine gamma-lyase; experiment: Non-covalent reversible inhibition of human CSE
[12] = Binding affinity to H2S assessed as absorbing of released H2S up to 100 uM in presence of NaHS as H2S donor; conditions: dose microM <=100

T1 sequence (P32929 whole entry): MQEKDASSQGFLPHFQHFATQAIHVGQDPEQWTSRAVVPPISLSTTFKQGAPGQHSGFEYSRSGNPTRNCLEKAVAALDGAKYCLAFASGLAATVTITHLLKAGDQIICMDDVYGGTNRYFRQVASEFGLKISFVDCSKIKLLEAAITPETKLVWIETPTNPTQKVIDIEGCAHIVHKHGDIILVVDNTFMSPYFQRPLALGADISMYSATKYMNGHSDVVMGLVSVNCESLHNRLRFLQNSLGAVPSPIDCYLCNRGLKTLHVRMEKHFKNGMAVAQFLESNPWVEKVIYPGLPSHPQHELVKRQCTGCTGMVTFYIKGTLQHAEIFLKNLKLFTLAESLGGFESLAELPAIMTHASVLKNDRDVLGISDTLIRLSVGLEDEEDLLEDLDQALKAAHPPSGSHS

Cc1nc2c(N)nc(N)nc2nc1O
IC50 [1]: < 50 µM

COc1cccc2c1C(=O)C1=C(C[C@H](CC(=O)O)O[C@H]1C)C2=O
IC50 [1]: 6.2 µM | IC50 [2]: 7.4 µM | Kd [3]: 3.8 µM | Ratio IC50 (Homo sapiens [4]): 161 | Ratio IC50 (Homo sapiens [5]): 32 | Ki [6]: 4.9 µM | inhibition [7]: Active | inhibition [8]: Active | IC50 [9]: 13.5 µM | Activity [10]: 20% | IC50 [11]: 6.2 µM | Activity [12]: inactive

CC1=C/C(=C(\c2cc(C)c(O)c(C(=O)O)c2)c2c(Cl)cccc2Cl)C=C(C(=O)O)C1=O
IC50 [1]: 155 µM

CC1=CC(=C(c2cc(C)c(O)c(C(=O)O)c2)c2cc(C)c(O)c(C(=O)O)c2)C=C(C(=O)O)C1=O
IC50 [1]: 59.9 µM

Nc1ccc(Cc2ccc(NC3C(=O)c4ccccc4C(=O)C3Cl)cc2)cc1 (stereo not drawn)
IC50 [1]: < 50 µM

O=C1C=C/C(=N/C2C(=O)c3ccccc3C(=O)C2Cl)C=C1Cl (stereo not drawn)
IC50 [1]: < 50 µM

O=[N+]([O-])c1ccc(Sc2cccc[n+]2[O-])c2nonc12
IC50 [1]: < 50 µM
